Measured values published in PMC9959748, “Nucleoside Analogs That Inhibit SARS-CoV-2 Replication by Blocking Interaction of Virus Polymerase with RNA” (International Journal of Molecular Sciences, 2023).
Read-outs that look alike come from different tables or passages of the source.

Tests used:
[1] = system: Influenza A/California/7/2009 (H1N1)pdm09; assay: organism not typed; assay type: cell-based, Influenza virus; settings: for IC50: read-out: IC50 ± SD Influenza Virus; for log reduction at 50 µM: read-out: Δlog10(TCID50) Influenza Virus; for SI (selectivity index), the ratio of CD50 to IC50: influenza virus
[2] = system: Vero E6 cells
[3] = system: SARS-CoV-2; assay: microbe, parasite or virus in culture; assay type: cell-based, SARS-CoV-2 (hCoV-19/Russia/Moscow-PMVL-12/2020 strain)
[4] = system: MDCK cells; settings: concentration decreasing cell number by 50%
[5] = system: SARS-CoV-2; assay: microbe, parasite or virus in culture; assay type: cell-based, SARS-CoV-2 (hCoV-19/Russia/Moscow-PMVL-12/2020 strain); settings: for log reduction at 20 µM: measured at 20 µM
[6] = biological target: T1, SARS-CoV-2 RdRp (Severe acute respiratory syndrome coronavirus 2, UniProt P0DTD1); assay: Electrophoretic mobility shift assay of RNA binding by RdRp; settings: 1 mM inhibitor incubated with RdRp before RNA substrate
[7] = biological target: SARS-CoV-2 RdRp holoenzyme (nsp12, nsp7, nsp8) (Severe acute respiratory syndrome coronavirus 2, UniProt P0DTD1); assay: biochemical; assay type: biochemical; settings: for Inhibition of RNA extension by RdRp: 1 mM inhibitor pre-incubated with RdRp before RNA substrate (Figure 3A); for IC50: RdRp pre-incubated with inhibitor, then RNA substrate and ATP added, read-out: IC50 for inhibition of RdRp activity (RNA extension)
[8] = system: SARS-CoV-2 PIK35 strain; parameters: method as in PMID 35127150; settings: Vero cells, read-out: EC50, inhibition of the reproduction of SARS-CoV-2; cited from earlier work
[9] = biological target: T1, SARS-CoV-2 RdRp; settings: cited from earlier work
[10] = biological target: T1, SARS-CoV-2 RdRp; parameters: method as in PMID 33674802; settings: interferes with template and primer RNA binding; cited from earlier work
[11] = concentration reducing the cell number by 50%, MTT
[12] = Severe acute respiratory syndrome coronavirus 2, Vero C1008, Vero E6, vs DMSO-treated control, read-out: Δlog10(TCID50) SARS-CoV-2
[13] = African green monkey (Chlorocebus aethiops)
[14] = Severe acute respiratory syndrome coronavirus 2, Vero C1008, 96 h, read-out: Δlog10(RNA), logarithmic change in the SARS-CoV-2 RNA levels

Compound	Anti-SARS-CoV-2 activity grade [3]	CD50 ± SD MDCK [4] [µM]	IC50 ([1]; MDCK) [µM]	log reduction at 50 µM ([1]; at 50 µM, MDCK cells)	Inhibition of RNA extension by RdRp [7]	CD50 ± SD Vero E6 [2, 13] [µM]	log reduction at 50 µM [3, 14]	log reduction at 50 µM [5, 12]	other results
1-(β-D-Ribofuranosyl)-5-(4-tert-butylphenoxy)-uracil [Compound 13]	Moderate activity	>1000	–	–	–	–	–	–	Δlog10(TCID50) Influenza Virus ([1]; at 50 µM, MDCK cells): 0.5; IC50 [1]: > 50 µM; CD50 ± SD Vero E6 [2, 11]: >500 µM; Δlog10(RNA), logarithmic change in the SARS-CoV-2 RNA levels [3]: 0.8
CCCCCc1ccc(-c2cc3cn(C4C=CC(O)C4)c(=O)nc3[nH]2)cc1 (centres unmarked) [Compound 1, 1-(4’-hydroxy-2’-cyclopenten-1-yl)-6-(4-pentylphenyl)-3H-pyrrolo [2,3-d]-pyrimidine-2-one]	–	89 ± 12	> 50	0	completely blocked RNA synthesis	153 ± 5	–	–	log reduction at 20 µM [5, 12]: 1; Decrease of the TCID50 value ([5]; summary of Table 1): ~ 10 fold; Inhibition of RNA binding by RdRp, EMSA [6]: fully prevented RNA binding; IC50 [7]: 44 ± 2 µM; log reduction at 10 µM ([3]; Severe acute respiratory syndrome coronavirus 2, Vero C1008, 96 h, measured at 10 µM (footnote *), Vero E6, vs DMSO, read-out: Δlog10(RNA), logarithmic change in the SARS-CoV-2 RNA levels): 1.5; Decrease of the amount of viral RNA ([3]; summary of Table 1): > 10 fold; EC50 [8]: 21 µM
CC(C)(C)c1ccc(-c2cc3cn(C4C=CC(O)C4)c(=O)nc3[nH]2)cc1 (centres unmarked) [Compound 2, 1-(4’-hydroxy-2’-cyclopenten-1-yl)-6-(4-tert-butylphenyl)-3H-pyrrolo [2,3-d]-pyrimidine-2-one]	–	68 ± 5	~1	1.5	–	150 ± 15	0.3	–	SI (selectivity index), the ratio of CD50 to IC50 ([1]; MDCK cells): 49.60; IC50 [1]: 1.37 ± 0.28 µM; log reduction at 20 µM [5, 12]: 0.5; EC50 [8]: 53 µM
CCCCCc1ccc(-c2cc3cn(C4C=CC(O)C4)c(=O)nc3o2)cc1 (centres unmarked) [Compound 3]	Moderate activity	442 ± 21	> 50	0	completely blocked RNA synthesis	>500	1.3	–	log reduction at 20 µM [5, 12]: 0.5
CCCCCc1ccc(-c2cc3cn([C@@H]4O[C@H](CO)[C@@H](O)[C@H]4O)c(=O)nc3o2)cc1 [Compound 4, 3-(β-D-Ribofuranosyl)-6-(4-pentylphenyl)-3H-furano [2,3-d]-pyrimidine-2-on]	–	652 ± 77	> 25	1	–	>500	0.2	–	log reduction at 20 µM [5, 12]: 0.5
CCCCCc1ccc(-c2cc3cn(COCCO)c(=O)nc3o2)cc1 [Compound 5, 3-((2-(Hydroxy)ethoxy)methyl)-6-(4-pentylphenyl)-3H-furano [2,3-d]-pyrimidine-2-on]	Moderate activity	686 ± 46	~1	1.5	completely blocked RNA synthesis	400 ± 98	0.3	1	IC50 [1]: 1.34 ± 0.33 µM; Effect on SARS-CoV-2 infectivity, TCID50 in Vero cells ([5]; summary of Table 1): stronger effects; IC50 [7]: 72 ± 20 µM; Effect on SARS-CoV-2 viral RNA titer ([3]; summary of Table 1): only weakly affected
CCCCCc1ccc(-c2cc3cn([C@@H]4O[C@H](CO)[C@@H](O)[C@H]4O)c(=O)[nH]c-3n2)cc1 [Compound 6, 3-(β-D-ribofuranosyl)-6-(4-pentylphenyl)-3H-pyrrolo [2,3-d]-pyrimidine-2-on]	–	614 ± 52	> 50	0	–	450 ± 166	0.2	0	Effect on SARS-CoV-2 infectivity, TCID50 in Vero cells ([5]; summary of Table 1): inactive; Effect on SARS-CoV-2 viral RNA titer ([3]; summary of Table 1): inactive
CCCCCc1ccc(-c2cc3cn(COCCO)c(=O)[nH]c-3n2)cc1 [Compound 7, 3-((2-(Hydroxy)ethoxy)methyl)-6-(4-pentylphenyl)-3H-pyrrolo [2,3-d]-pyrimidine-2-one]	–	74 ± 12	> 50	0.5	–	240 ± 19	0.4	0	Effect on SARS-CoV-2 infectivity, TCID50 in Vero cells ([5]; summary of Table 1): inactive; Effect on SARS-CoV-2 viral RNA titer ([3]; summary of Table 1): inactive
CC(C)(C)c1ccc(Nc2cn(C3C=CC(O)C3)c(=O)[nH]c2=O)cc1 (centres unmarked) [Compound 8]	Moderate activity	552 ± 35	> 50	0.5	–	>500	1.1	0.5	Effect on SARS-CoV-2 infectivity, TCID50 in Vero cells ([5]; summary of Table 1): weak protection; Effect on SARS-CoV-2 viral RNA titer ([3]; summary of Table 1): visible reduction
CC(C)(C)c1ccc(Nc2cn(C3C=CC(O)C3)c(=O)n(C3C=CC(O)C3)c2=O)cc1 (centres unmarked) [Compound 9]	–	392 ± 9	> 50	0.5	weaker effects	220 ± 23	0.8	0.5	–
CC(C)(C)c1ccc(Oc2cn(C3C=CC(O)C3)c(=O)n(C3C=CC(O)C3)c2=O)cc1 (centres unmarked) [Compound 10]	–	418 ± 42	> 50	-0.5	completely blocked RNA synthesis	500 ± 30	0.8	–	log reduction at 2 µM ([5]; Severe acute respiratory syndrome coronavirus 2, Vero C1008, measured at 2 µM (footnote ***), Vero E6, vs DMSO-treated control, read-out: Δlog10(TCID50) SARS-CoV-2): 0.5; Inhibition of RNA binding by RdRp, EMSA [6]: fully prevented RNA binding
CC(C)(C)c1ccc(Oc2cn(C3C=CC(O)C3)c(=O)[nH]c2=O)cc1 (centres unmarked) [Compound 11]	Moderate activity	>1000	> 50	-0.5	–	440 ± 6	0.7	–	log reduction at 20 µM [5, 12]: 1
CC(C)(C)c1ccc(-c2cc3cn(COCCO)c(=O)[nH]c-3n2)cc1 [Compound 14, 3-((2-(Hydroxy)ethoxy)methyl)-6-(4-tert-butylphenyl)-3H-pyrrolo [2,3-d]-pyrimidine-2-one]	Moderate activity	74 ± 18	~1	1.5	completely blocked RNA synthesis	310 ± 24	0.4	1	SI (selectivity index), the ratio of CD50 to IC50 ([1]; MDCK cells): 110.61; IC50 [1]: 0.67 ± 0.12 µM; Effect on SARS-CoV-2 infectivity, TCID50 in Vero cells ([5]; summary of Table 1): stronger effects; Inhibition of RNA binding by RdRp, EMSA [6]: fully prevented RNA binding; IC50 [7]: 244 ± 58 µM; Effect on SARS-CoV-2 viral RNA titer ([3]; summary of Table 1): only weakly affected
O=C(N[C@@H](Cc1ccc(O)cc1)C(=O)O)c1cc(-c2ccccc2)c(=O)n2c1sc1ccc(OC3CCCCC3)cc12 [HeE1-2Tyr]	–	–	–	–	–	–	–	–	IC50 [9]: 27 µM
O=c1nc(NO)ccn1[C@@H]1O[C@H](CO)[C@@H](O)[C@H]1O [NHC, N4-hydroxycitidine, reference compound]	–	–	–	–	–	–	–	–	CD50 ± SD Vero E6 [2, 11]: 80 ± 18 µM; Δlog10(RNA), logarithmic change in the SARS-CoV-2 RNA levels ([3]; measured at 10 µM (footnote *), Vero E6, vs DMSO): 3.9 *
CCOC(=O)C1=C[C@@H](OC(CC)CC)[C@H](NC(C)=O)[C@@H](N)C1 [Oseltamivir, reference compound]	–	500 ± 82	0.61 ± 0.15	–	–	–	–	–	SI (selectivity index), the ratio of CD50 to IC50 ([1]; MDCK cells): 820
Cc1c(C)c2c(c3c1CC[n+]1ccc(/C=C4\Sc5ccccc5N4C)cc1-3)-c1cccc(/C=C3\Sc4ccccc4N3C)[n+]1CC2 [PR673]	–	–	–	–	–	–	–	–	IC50 [9]: ~4 µM
Cc1ccc(C(=O)Nc2ccc(S(=O)(=O)O)c3cc(S(=O)(=O)O)cc(S(=O)(=O)O)c23)cc1NC(=O)c1cccc(NC(=O)Nc2cccc(C(=O)Nc3cc(C(=O)Nc4ccc(S(=O)(=O)O)c5cc(S(=O)(=O)O)cc(S(=O)(=O)O)c45)ccc3C)c2)c1 [suramin]	–	–	–	–	–	–	–	–	Affinity of interaction with RdRp [10]: micromolar affinity
